# Test results published in patent EP1175222B1, “MONTHLY DOSES OF GLYCOPEPTIDE ANTIBIOTICS FOR LONG-TERM PREVENTION OF STREPTOCOCCUS PNEUMONIAE INFECTIONS” (ELI LILLY AND COMPANY, priority 1999, dated 2000).
# Read-outs that look alike come from different tables or passages of the source.
# Legend:
# S pneumoniae Park I = experiment: Mouse protection model, intraperitoneal bacterial challenge; format: in vivo; settings: mice; dose protecting 50% from lethal infection; two subcutaneous doses 1 and 5 hours after challenge
# Procedure: (§1) As listed in Table 2, N^DISACC-(4-(4-chlorophenyl)benzyl)A82846B appeared to have activity 30 to 40 times that of vancomycin when given subcutaneously to mice with systemic streptococcal or staphylococcal infections. […] In a murine model of systemic infection, various dosing regimens of N^DISACC-(4-(4-chlorophenyl)benzyl)A82846B administered subcutaneously were compared in animals inoculated intraperitoneally with either S pneumoniae or S aureus. The total dose ranged from 0.18 to 2.01 mg/kg body weight, subdivided into 1 to 24 doses during a 48-hour treatment period. Pharmacokinetic studies were performed in uninfected animals using a bioassay. Using multiple regression analysis to find the pharmacodynamic parameter associated with survival, time above the MIC appeared-to be more important (p<0.00001) than the maximum plasma concentration Cmax (p=0.01); however, for 1- and 2-dose regimens near the ED50, Cmax appeared to be the best predictor of outcome. A more detailed description of this study may be found in Knudsen, J., et al., "Pharmacodynamics of glycopeptides in Animal Models" Abstracts of the 20th International Congress of Chemotherapy, Abstract No. 4076, June (1997). […]
# S pyogenes C-203 = experiment: as above; format: in vivo; settings: mice; dose protecting 50% from lethal infection; two subcutaneous doses 1 and 5 hours after challenge
# Procedure: as §1
# Streptococcus pneumoniae = experiment: MIC90 by NCCLS broth microdilution against a worldwide collection of Streptococcus pneumoniae; format: cell-based
# Procedure: (§2) The term "MIC" or "minimum inhibitory concentration" refers to the lowest concentration of the agent that prevents visible growth after 18 to 24 hours of incubation. "MIC90" refers to the lowest concentration of the agent that prevents 90% growth after 18 to 24 hours of incubation. "MBC" or "minimal bactericidal concentration" refers to the lowest concentration that results in a 99.9% decline in bacterial numbers. Although the value of the MBC as a clinical test has not been established, it may be useful in special instances where very precise knowledge of the ability of a given antimicrobial agent to kill a specific clinical isolate is critical, as in the therapy of bacterial endocarditis.
# Table 1 lists the in vitro activity of N^DISACC-(4-(4-chlorophenyl)benzyl)A82846B and other compounds against a worldwide collection of Streptococcus pneumoniae. N^DISACC-(4-(4-chlorophenyl)benzyl)A82846B clearly demonstates a significant improvement against all three strains. […]
# MICs were determined using NCCLS broth microdilution methodology (see, Fasola E., Spangler SK., Ednie LM., Jacobs MR., Bajaksouzian S., and Appelbaum PC., "Comparative activities of LY 333328 against penicillin-susceptible and -resistant pneumococci" Antimicrobial Agents & Chemotherapy, 40(11), 2661-3 (1996)).
# [1] = system: penicillin-sensitive S. pneumoniae type 3 strain; experiment: In-vivo rabbit model of S. pneumoniae meningitis (CSF measurements); settings: rabbits
# Procedure: (§3) At 12 h after infection, they were treated with a single dose of N^DISACC-(4-(4-chlorophenyl)benzyl)A82846B [1 mg/kg (n = 5), 2.5 mg/kg (n = 5), 10 mg/kg (n = 10), […] (n = 2)] . N^DISACC-(4-(4-chlorophenyl)benzyl)A82846B was dissolved in 5% glucose and infused over 30 min. Controls received a bolus of ceftriaxone (20 mg/kg body weight) followed by a continuous infusion of 10 mg/kg/h (n = 12). The cerebrospinal fluid (CSF) was drawn at 12, 14, 17, 20, and 24h for the determination of bacterial titers, leukocyte densities, lipoteichoic/teichoic acid, lactate and protein concentrations. The concentration of the neuron-specific enolase in CSF was measured at 24h. Bactericidal activity in CSF was estimated by log-linear regression of bacterial titers versus time. Additionally, time-kill curves were performed with 10 mg/l N^DISACC-(4-(4-chlorophenyl)benzyl)A82846B.
# S.pneumoniae = experiment: In vitro time-kill curves; format: cell-based; settings: 10 mg/l
# Procedure: as §3
# S aureus SA027 = experiment: Mouse protection model, intraperitoneal bacterial challenge; format: in vivo; settings: mice; dose protecting 50% from lethal infection; two subcutaneous doses 1 and 5 hours after challenge
# Procedure: as §1
# [2] = design: species or system rats; settings: rat, in vivo, 5 mg/kg
# From the text: Although single doses of N^DISACC-(4-(4-chlorophenyl)benzyl)A82846B may provide high plasma concentrations for a prolonged period of time, it may also be highly desirable to maintain high concentrations in respiratory tissues (the main portal of initial tissue infection and invasion).
# [3] = system: penicillin-sensitive S. pneumoniae type 3 strain; experiment: MIC and MBC for the meningitis model strain; format: cell-based; settings: penicillin-sensitive type 3 strain
# Procedure: as §2
# as §3, with “Bactericidal activity in CSF was estimated by log-linear regression of bacterial titers versus time. Additionally, time-kill curves were performed with 10 mg/l N^DISACC-(4-(4-chlorophenyl)benzyl)A82846B.” left out
# [4] = Safety and pharmacokinetics of single intravenous doses in eight healthy men; format: in vivo
# Procedure: An open-label, uncontrolled, dose-escalation study was conducted with eight healthy men. All subjects were between 22 and 50 years of age and within 10% of their ideal body weights. Single does, ranging from 0.5 mg/kg body weight to 3 mg/kg body weight, were administered intravenously over 30 minutes. Plasma samples were collected just prior to the start of infusion and at intervals for 336 hours after the end of the infusion for assessment of drug concentration, biochemical and hematologic parameters. N^DISACC-(4-(4-chlorophenyl)benzyl) A82846B plasma and urine concentrations were determined by HPLC and competitive binding radioimmunoassay, respectively. Individual plasma concentration-time profiles were evaluated based on compartmental analysis techniques.
# S. pneumoniae = experiment: Neutropenic model of S. pneumoniae bacteremia in mice; format: in vivo; settings: subcutaneously or intravenously at doses ≥ 5 mg/kg body weight
# [5] = design: species or system mice; settings: mouse, in vivo, sc
# Procedure: as §1
# [6] = Streptococcus pneumoniae, Intermediate N = 40 (penicillin-intermediate by NCCLS criteria), read-out: MIC90
# [7] = Streptococcus pneumoniae, Resistant N = 42 (penicillin-resistant by NCCLS criteria), read-out: MIC90
# [8] = Streptococcus pneumoniae, Sensitive N = 50 (penicillin-sensitive by NCCLS criteria), read-out: MIC90
# [9] = Intermediate N = 40 (penicillin-intermediate by NCCLS criteria)
# [10] = Resistant N = 42 (penicillin-resistant by NCCLS criteria)
# [11] = Sensitive N = 50 (penicillin-sensitive by NCCLS criteria)
# [12] = estimated by Lineweaver-Burk plot
# [13] = healthy men, single i.v. dose 0.5 to 3 mg/kg over 30 minutes
# [14] = healthy men, single i.v. dose 0.5 to 3 mg/kg over 30 minutes, normalized to dose and weight
compound,measurement,setting,value
CN[C@H](CC(C)C)C(=O)N[C@H]1C(=O)N[C@@H](CC(N)=O)C(=O)N[C@H]2C(=O)N[C@H]3C(=O)N[C@H](C(=O)N[C@H](C(=O)O)c4cc(O)cc(O)c4-c4cc3ccc4O)[C@H](O[C@H]3C[C@](C)(N)[C@@H](O)[C@H](C)O3)c3ccc(c(Cl)c3)Oc3cc2cc(c3O[C@@H]2O[C@H](CO)[C@@H](O)[C@H](O)[C@H]2O[C@H]2C[C@](C)(N)[C@@H](O)[C@H](C)O2)Oc2ccc(cc2Cl)[C@H]1O [A82846B],ED50,S pneumoniae Park I,0.18 mg/kg/dose
same,ED50,S pyogenes C-203,0.18 mg/kg/dose
CO/N=C(\C(=O)N[C@@H]1C(=O)N2C(C(=O)O)=C(CSc3nc(=O)c(=O)[nH]n3C)CS[C@H]12)c1csc(N)n1 [Ceftriaxone],MIC90,Streptococcus pneumoniae; [6],0.5 µg/mL
same,MIC90,Streptococcus pneumoniae; [7],2 µg/mL
same,MIC90,Streptococcus pneumoniae; [8],0.06 µg/mL
same,"bactericidal activity in CSF, Δlog CFU/ml/h ± SD",[1]; bolus 20 mg/kg body weight then continuous infusion of 10 mg/kg/h,-0.33 ± 0.15 Δlog CFU/ml/h
same,time until S.pneumoniae killed / cultures sterile,S.pneumoniae,12 h
C[C@@H](O)[C@H]1C(=O)N2C(C(=O)O)=C(SCCN=CN)C[C@H]12 [Imipenem],MIC90,Streptococcus pneumoniae; [6],0.125 µg/mL
same,MIC90,Streptococcus pneumoniae; [7],0.5 µg/mL
same,MIC90,Streptococcus pneumoniae; [8],0.03 µg/mL
CC1(C)S[C@@H]2[C@H](NC(=O)Cc3ccccc3)C(=O)N2[C@H]1C(=O)O [Penicillin G],MIC90,Streptococcus pneumoniae; [9],1.0 µg/mL
same,MIC90,Streptococcus pneumoniae; [10],4.0 µg/mL
same,MIC90,Streptococcus pneumoniae; [11],0.06 µg/mL
CO[C@H]1/C=C/O[C@@]2(C)Oc3c(C)c(O)c4c(O)c(c(/C=N/N5CCN(C)CC5)c(O)c4c3C2=O)NC(=O)/C(C)=C\C=C\[C@H](C)[C@H](O)[C@@H](C)[C@@H](O)[C@@H](C)[C@H](OC(C)=O)[C@@H]1C [Rifampin],MIC90,Streptococcus pneumoniae; [6],0.015 µg/mL
same,MIC90,Streptococcus pneumoniae; [7],> 8 µg/mL
same,MIC90,Streptococcus pneumoniae; [8],0.03 µg/mL
CN[C@H](CC(C)C)C(=O)N[C@H]1C(=O)N[C@@H](CC(N)=O)C(=O)N[C@H]2C(=O)N[C@H]3C(=O)N[C@H](C(=O)N[C@H](C(=O)O)c4cc(O)cc(O)c4-c4cc3ccc4O)[C@H](O)c3ccc(c(Cl)c3)Oc3cc2cc(c3O[C@@H]2O[C@H](CO)[C@@H](O)[C@H](O)[C@H]2O[C@H]2C[C@](C)(N)[C@H](O)[C@H](C)O2)Oc2ccc(cc2Cl)[C@H]1O [Vancomycin],MIC90,Streptococcus pneumoniae; [9],0.5 µg/mL
same,MIC90,Streptococcus pneumoniae; [10],0.5 µg/mL
same,MIC90,Streptococcus pneumoniae; Streptococcus pneumoniae,0.5 µg/mL
same,ED50,S aureus SA027,0.70 mg/kg/dose
same,ED50,S pneumoniae Park I,1-1 mg/kg/dose
same,ED50,S pyogenes C-203,0.80 mg/kg/dose
N^DISACC-(4-(4-chlorophenyl)benzyl)A82846B,MIC90,Streptococcus pneumoniae; [9],0.015 µg/mL
same,MIC90,Streptococcus pneumoniae; [10],0.03 µg/mL
same,MIC90,Streptococcus pneumoniae; [11],0.008 µg/mL
same,ED50,S aureus SA027,0.009 mg/kg/dose
same,ED50,S pneumoniae Park I,0.028 mg/kg/dose
same,ED50,S pyogenes C-203,0.045 mg/kg/dose
same,lung tissue half life,[2],29 days
same,mean concentration of the neuron-specific enolase in CSF at 24h,"[1]; 10 mg/kg body weight, parameter of neuronal damage, p = 0.14 vs ceftriaxone",92.3 ± 68.7
same,half-maximal dose (KD),[1]; [12],5.3 mg/kg body weight
same,maximum bactericidal rate (Emax),[1]; [12],-0.88 Δlog CFU/ml/h
same,"bactericidal activity in CSF, Δlog CFU/ml/h ± SD",[1]; single dose of 1 mg/kg body weight (only bacteriostatic),0.01 ± 0.11 Δlog CFU/ml/h
same,"bactericidal activity in CSF, Δlog CFU/ml/h ± SD",[1]; single dose of 2.5 mg/kg,-0.26 ± 0.22 Δlog CFU/ml/h
same,"bactericidal activity in CSF, Δlog CFU/ml/h ± SD",[1]; single dose of 10 mg/kg body weight 12 h after infection,-0.29 ± 0.21 Δlog CFU/ml/h
same,"Protein, lactate and lipoteichoic/teichoic acid concentrations in CSF",[1]; single dose of 10 mg/kg body weight compared with ceftriaxone 10 mg/kg/h,no significant differences
same,"bactericidal activity in CSF, Δlog CFU/ml/h",[1]; single dose of 40 mg/kg,-0.52 ± 0.02 Δlog CFU/ml/h
same,MBC,[3],0.03 µg/mL
same,MIC,[3],0.015 µg/mL
same,terminal t1/2,"[4]; healthy men, single i.v. doses, to be interpreted cautiously",10.5 days
same,area under the terminal phase as share of total AUC0-∞,"[4]; human, in vivo, iv",approximately 50%
same,effect on bacteremia,S. pneumoniae,eliminated bacteremia
same,absorption following subcutaneous administration,[5],absorbed poorly
same,time until S.pneumoniae killed / cultures sterile,S.pneumoniae,≤ 1 h
N^DISACC-(4-(4-chlorophenyl)benzyl)A82846B Diphosphate,"% dose excreted in urine, Mean (%CV)",[4]; [13],3.1 (42) %
same,"T1/2, Mean (%CV)",[4]; [13],251 (96) hr
same,"AUC0-∞, Mean (%CV)",[4]; [14],201 (62) (µg hr/ml)/(mg/kg)
same,"Cmax, Mean (%CV)",[4]; [14],16.5 (20) (µg/ml)/(mg/kg)
same,"Clp, Mean (%CV)","[4]; healthy men, single i.v. dose 0.5 to 3 mg/kg over 30 minutes, plasma clearance",0.0896 (30) ml/min/kg
same,"Vss, Mean (%CV)","[4]; healthy men, single i.v. dose 0.5 to 3 mg/kg over 30 minutes, steady-state volume of distribution",1.08 (45) 1/kg
Teicoplanin,MIC90,Streptococcus pneumoniae; [9],0.06 µg/mL
same,MIC90,Streptococcus pneumoniae; [10],0.06 µg/mL
same,MIC90,Streptococcus pneumoniae; [11],0.06 µg/mL
